Like-named read-outs stand apart in the source and are kept apart here.
Legend:
[1] = molecular target: T1, human tissue nonspecific alkaline phosphatase (h-TNAP) (Homo sapiens, UniProt P05186); assay: Alkaline phosphatase inhibition assay (p-NPP substrate); assay type: biochemical
T1 sequence (P05186 18-524): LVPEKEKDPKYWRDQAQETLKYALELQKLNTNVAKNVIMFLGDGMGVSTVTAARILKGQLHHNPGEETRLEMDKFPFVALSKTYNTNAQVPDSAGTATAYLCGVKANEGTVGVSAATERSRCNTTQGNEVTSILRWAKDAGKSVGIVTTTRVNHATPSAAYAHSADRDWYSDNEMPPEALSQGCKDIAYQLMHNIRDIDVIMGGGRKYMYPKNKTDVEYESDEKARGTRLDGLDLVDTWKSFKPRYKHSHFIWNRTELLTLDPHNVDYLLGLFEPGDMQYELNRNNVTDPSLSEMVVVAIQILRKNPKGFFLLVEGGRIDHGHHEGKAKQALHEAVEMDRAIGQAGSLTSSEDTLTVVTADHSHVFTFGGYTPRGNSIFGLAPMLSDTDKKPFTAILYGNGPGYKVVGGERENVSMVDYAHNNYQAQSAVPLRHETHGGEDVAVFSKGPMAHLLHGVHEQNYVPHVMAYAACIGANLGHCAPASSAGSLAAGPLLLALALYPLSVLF
Description: The newly synthesized compounds were tested against human tissue nonspecific alkaline phosphatase (h-TNAP). The compounds were initially tested against the h-TNAP enzymes at 1 mM concentration. The assay buffer (pH 9.5) constituted of 50% glycerol, followed by tris-hydrochloride (50.0 mM), MgCl2 (5.0 mM), and ZnCl2 (0.1 mM) in the solution. The enzyme substrate p-nitrophenyl phosphate (p-NPP) and all the required test compounds were diluted to the required concentration by a dilution buffer method. In a 96-well plate, the assay was started by adding 70 µL of assay buffer followed by 10.0 µL of the test compound (from 1 mM), 10.0 µL of the enzyme (0.5 µL/mL) and then subsequently incubating at 37 °C for 10 min. The reaction was initiated with the addition of 10.0 µL of substrate (5.0 mM p-NPP) into each well and incubated for an additional 30 min.
Percent inhibition was calculated by the formula:% Inhibition = [100 − (abs of test comp/abs of control) × 100]

[2] = test system: Cervical Cancer (HeLa) Cells; assay: MTT cell viability assay, HeLa; assay type: cell-based; conditions: Homo sapiens, HeLa
Source text: An MTT assay was used to determine the viability of the cells under examination in the desired medium. The mitochondrial dehydrogenase enzyme of the viable cells has a key role in the conversion of the yellow water-soluble substrate 3-(4,5-dimethylthiazol-2-y1)-2,5 diphenyl tetrazolium bromide (MTT) into a dark blue formazan product that is insoluble in water. The anticancer activity of the novel synthetic derivatives (4a–4k) was investigated through an MTT assay, with small modifications following the already published protocols against cancer cell lines (HeLa and MCF-7), using cisplatin as a reference drug. The cytotoxic effect of the tested compounds at 100 µM concentration was determined and represented as the percent growth inhibition compared with the untreated control cells. The first series comprised dihydropyridines analogous from 4a–4f with various substitution patterns on the phenyl ring. […] It is presumed that the 1-naphthyl containing compound 4c was locked in a configuration that is not favorable for an interaction with amino acid residues.
The anti-proliferative activity of the synthesized compounds was determined in MCF-7 and HeLa cells by an MTT cell viability assay, as described earlier. Briefly, we seeded 1 × 10^4 cells/well in a sterile 96-well culture microtiter plate and incubated them in a 5% CO2 incubator at 37 °C for 24 h. […] After 24 h, the cells were treated with 0.2 mg/mL of MTT reagent for 4 h. We added 10% acidified SDS (sodium dodecyl sulfate) solubilizing solution in propanol (1:1) to solubilize the formazan crystals. After 30 min at 37 °C, the plate was placed on a gyratory shaker to completely dissolve the formazan crystals. The plate was placed on a microplate reader to measure the optical density at 570 nm. The IC50 values were calculated from three independent experiments as previously reported.

IC50 ([1]; Table 2, unit given in Table 1, read-out: Alkaline Phosphatase (h-TNAP) IC50): 1320 ± 260 nM
fold more potent than levamisole ([1]; h-TNAP IC50 compared with levamisole): about seventeen-fold
IC50 ([1]; h-TNAP, assay buffer pH 9.5, Table 1 and text, read-out: IC50 + SEM): 1320 ± 260 nM
IC50 ([2]; unit given, read-out: Cervical Cancer (HeLa) Cells IC50 Values ± SEM): 53470 ± 500 nM
SMILES: N#CC1=C(N)N(Cc2ccccc2)C(N)=C(C#N)C1c1ccc2ccccc2c1 [Compound 4d, 2,6-Diamino-1-benzyl-4-(naphthalen-2-yl)-1,4-dihydropyridine-3,5-dicarbonitrile]
inhibition at 100 µM ([2]; 100 µM, 24 h): 82.7%

From paper PMC9570995, “Design, Synthesis, and Biological Evaluation of Novel Dihydropyridine and Pyridine Analogs as Potent Human Tissue Nonspecific Alkaline Phosphatase Inhibitors with Anticancer Activity: ROS and DNA Damage-Induced Apoptosis” (Molecules, 2022)
